# pIC50: −log10 of the molar value.
# Key:
# DNA gyrase [1] = molecular target: DNA gyrase (Staphylococcus aureus, UniProt P0A0K8+P20831); experiment: Inhibition of Staphylococcus aureus DNA gyrase; type: protein-complex assay
# Escherichia coli [2] = experiment: Antibacterial activity against Escherichia coli; type: functional
# DNA gyrase [3] = molecular target: T1, DNA gyrase (Escherichia coli, UniProt P0AES4+P0AES6); experiment: Inhibition of Escherichia coli DNA gyrase; type: protein-complex assay
# DNA gyrase subunit A [4] = molecular target: DNA gyrase subunit A (Staphylococcus aureus, UniProt P20831); experiment: Inhibition of Staphylococcus aureus DNA gyrase A assessed as reduction in enzyme-mediated supercoiling of relaxed pBR322 DNA measured after 60 mins by electrophoresis method
# DNA gyrase subunit A [5] = molecular target: DNA gyrase subunit A (Escherichia coli K-12, UniProt P0AES4); experiment: Inhibition of Escherichia coli DNA gyrase A assessed as reduction in enzyme-mediated supercoiling of relaxed pBR322 DNA measured after 60 mins by electrophoresis method
# [6] = molecular target: T2, DNA topoisomerase 4 subunit A (Escherichia coli K-12, UniProt P0AFI2); experiment: Inhibition of Escherichia coli DNA topoisomerase 4 subunit ParC assessed as reduction in decatenation of kinetoplast DNA incubated for 60 mins by ethidium bromide staining based gel electrophoresis method
# T2 sequence (P0AFI2 whole entry): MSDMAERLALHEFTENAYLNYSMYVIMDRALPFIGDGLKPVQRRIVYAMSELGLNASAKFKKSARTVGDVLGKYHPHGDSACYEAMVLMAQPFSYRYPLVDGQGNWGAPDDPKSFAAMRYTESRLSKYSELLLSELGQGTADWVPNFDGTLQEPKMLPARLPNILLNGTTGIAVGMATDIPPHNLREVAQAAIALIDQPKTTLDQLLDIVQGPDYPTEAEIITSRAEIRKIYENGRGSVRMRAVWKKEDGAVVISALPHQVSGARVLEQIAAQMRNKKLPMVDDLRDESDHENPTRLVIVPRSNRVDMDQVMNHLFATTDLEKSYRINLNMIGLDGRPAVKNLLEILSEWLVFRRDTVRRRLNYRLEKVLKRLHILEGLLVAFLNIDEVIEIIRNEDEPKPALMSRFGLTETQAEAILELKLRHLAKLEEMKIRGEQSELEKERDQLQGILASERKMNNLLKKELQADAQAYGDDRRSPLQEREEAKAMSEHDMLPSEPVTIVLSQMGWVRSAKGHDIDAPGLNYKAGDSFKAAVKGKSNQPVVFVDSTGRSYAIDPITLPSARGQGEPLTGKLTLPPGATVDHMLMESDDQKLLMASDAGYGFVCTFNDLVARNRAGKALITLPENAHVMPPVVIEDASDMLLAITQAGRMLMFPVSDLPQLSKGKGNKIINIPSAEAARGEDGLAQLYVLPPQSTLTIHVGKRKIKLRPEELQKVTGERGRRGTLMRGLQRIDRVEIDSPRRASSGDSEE
# [7] = molecular target: DNA topoisomerase 4 subunit A (Staphylococcus aureus, UniProt P0C1U9); experiment: Inhibition of Staphylococcus aureus DNA topoisomerase 4 subunit ParC assessed as reduction in decatenation of kinetoplast DNA incubated for 60 mins by ethidium bromide staining based gel electrophoresis method
# Staphylococcus aureus = experiment: Antibacterial activity against Staphylococcus aureus; type: functional
# [8] = Inhibition of Escherichia coli DNA topoisomerase 4
# Escherichia coli [9] = experiment: Antibacterial activity against Escherichia coli ATCC 25922 by CLSI method; type: functional
# DNA gyrase [10] = molecular target: T1, DNA gyrase; experiment: Inhibition of Escherichia coli DNA gyrase assessed as reduction in enzyme-mediated supercoiling of relaxed plasmid by fluorescence polarization assay; type: protein-complex assay
# [11] = Inhibition of Escherichia coli topoisomerase 4 after 24 hrs by ATPase assay
# Chain of DNA gyrase (Staphylococcus aureus, UniProt P0A0K8+P20831) (P0A0K8 whole entry): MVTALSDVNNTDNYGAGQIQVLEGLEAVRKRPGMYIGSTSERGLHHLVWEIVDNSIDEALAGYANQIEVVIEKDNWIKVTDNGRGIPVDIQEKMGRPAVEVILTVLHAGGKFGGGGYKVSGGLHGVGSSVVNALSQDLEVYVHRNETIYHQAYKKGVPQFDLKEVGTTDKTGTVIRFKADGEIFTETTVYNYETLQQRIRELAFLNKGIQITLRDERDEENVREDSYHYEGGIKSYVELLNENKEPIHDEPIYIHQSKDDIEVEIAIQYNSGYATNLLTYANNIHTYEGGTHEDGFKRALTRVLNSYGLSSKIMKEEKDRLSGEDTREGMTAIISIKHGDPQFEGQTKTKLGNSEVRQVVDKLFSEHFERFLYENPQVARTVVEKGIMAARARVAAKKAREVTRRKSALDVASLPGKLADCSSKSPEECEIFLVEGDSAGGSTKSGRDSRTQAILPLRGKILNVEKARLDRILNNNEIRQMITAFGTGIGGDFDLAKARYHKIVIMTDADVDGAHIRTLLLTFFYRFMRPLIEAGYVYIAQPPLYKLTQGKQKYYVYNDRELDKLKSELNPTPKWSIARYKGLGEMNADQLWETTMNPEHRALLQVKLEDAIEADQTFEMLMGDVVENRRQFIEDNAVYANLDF
# Chain of DNA gyrase (Staphylococcus aureus, UniProt P0A0K8+P20831) (P20831 whole entry): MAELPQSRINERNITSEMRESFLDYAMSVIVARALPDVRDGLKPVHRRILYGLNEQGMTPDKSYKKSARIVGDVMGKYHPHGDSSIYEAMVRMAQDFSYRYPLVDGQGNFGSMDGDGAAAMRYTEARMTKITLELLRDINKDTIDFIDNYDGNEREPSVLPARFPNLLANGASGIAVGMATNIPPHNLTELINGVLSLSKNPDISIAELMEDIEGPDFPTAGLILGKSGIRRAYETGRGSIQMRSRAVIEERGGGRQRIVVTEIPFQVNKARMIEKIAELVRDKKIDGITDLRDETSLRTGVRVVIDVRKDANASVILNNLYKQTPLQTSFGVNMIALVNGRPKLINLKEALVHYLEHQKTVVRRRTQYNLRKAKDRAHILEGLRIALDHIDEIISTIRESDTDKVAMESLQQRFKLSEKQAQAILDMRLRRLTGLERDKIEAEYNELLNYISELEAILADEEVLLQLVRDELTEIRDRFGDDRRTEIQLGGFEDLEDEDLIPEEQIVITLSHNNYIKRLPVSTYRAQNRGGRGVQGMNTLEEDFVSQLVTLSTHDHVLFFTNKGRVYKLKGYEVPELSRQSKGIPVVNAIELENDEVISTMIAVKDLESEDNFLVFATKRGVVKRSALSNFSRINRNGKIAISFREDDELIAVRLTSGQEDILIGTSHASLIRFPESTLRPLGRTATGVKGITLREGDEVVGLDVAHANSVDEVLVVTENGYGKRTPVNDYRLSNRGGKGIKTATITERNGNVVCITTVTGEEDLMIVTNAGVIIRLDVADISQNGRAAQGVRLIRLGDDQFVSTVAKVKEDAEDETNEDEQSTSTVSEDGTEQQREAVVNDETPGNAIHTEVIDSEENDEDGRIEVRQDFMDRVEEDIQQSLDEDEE
# Chain of DNA gyrase subunit A (Staphylococcus aureus, UniProt P20831) (P20831 whole entry): as above
# Chain of DNA topoisomerase 4 subunit A (Staphylococcus aureus, UniProt P0C1U9) (P0C1U9 whole entry): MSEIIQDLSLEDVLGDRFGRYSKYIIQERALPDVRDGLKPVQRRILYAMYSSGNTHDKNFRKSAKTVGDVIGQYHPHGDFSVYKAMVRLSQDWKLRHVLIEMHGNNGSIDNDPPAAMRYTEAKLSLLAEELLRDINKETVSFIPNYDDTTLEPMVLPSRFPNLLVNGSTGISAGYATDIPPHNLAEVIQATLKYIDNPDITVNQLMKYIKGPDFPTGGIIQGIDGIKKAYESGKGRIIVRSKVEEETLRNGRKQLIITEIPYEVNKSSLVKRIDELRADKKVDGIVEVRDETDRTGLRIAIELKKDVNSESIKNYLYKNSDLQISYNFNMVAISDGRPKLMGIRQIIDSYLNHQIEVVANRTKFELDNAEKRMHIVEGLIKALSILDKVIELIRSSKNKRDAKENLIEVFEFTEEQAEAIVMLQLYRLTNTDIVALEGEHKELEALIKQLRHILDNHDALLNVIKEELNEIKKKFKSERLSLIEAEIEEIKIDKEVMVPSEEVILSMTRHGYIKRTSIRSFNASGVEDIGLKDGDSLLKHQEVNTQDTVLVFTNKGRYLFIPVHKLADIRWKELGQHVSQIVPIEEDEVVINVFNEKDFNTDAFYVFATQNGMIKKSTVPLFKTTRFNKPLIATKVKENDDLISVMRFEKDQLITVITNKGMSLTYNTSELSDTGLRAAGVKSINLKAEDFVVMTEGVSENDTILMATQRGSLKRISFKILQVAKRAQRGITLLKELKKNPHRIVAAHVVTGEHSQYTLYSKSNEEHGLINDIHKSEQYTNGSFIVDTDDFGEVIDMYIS
# Chain of DNA gyrase subunit A (Escherichia coli K-12, UniProt P0AES4) (P0AES4 whole entry): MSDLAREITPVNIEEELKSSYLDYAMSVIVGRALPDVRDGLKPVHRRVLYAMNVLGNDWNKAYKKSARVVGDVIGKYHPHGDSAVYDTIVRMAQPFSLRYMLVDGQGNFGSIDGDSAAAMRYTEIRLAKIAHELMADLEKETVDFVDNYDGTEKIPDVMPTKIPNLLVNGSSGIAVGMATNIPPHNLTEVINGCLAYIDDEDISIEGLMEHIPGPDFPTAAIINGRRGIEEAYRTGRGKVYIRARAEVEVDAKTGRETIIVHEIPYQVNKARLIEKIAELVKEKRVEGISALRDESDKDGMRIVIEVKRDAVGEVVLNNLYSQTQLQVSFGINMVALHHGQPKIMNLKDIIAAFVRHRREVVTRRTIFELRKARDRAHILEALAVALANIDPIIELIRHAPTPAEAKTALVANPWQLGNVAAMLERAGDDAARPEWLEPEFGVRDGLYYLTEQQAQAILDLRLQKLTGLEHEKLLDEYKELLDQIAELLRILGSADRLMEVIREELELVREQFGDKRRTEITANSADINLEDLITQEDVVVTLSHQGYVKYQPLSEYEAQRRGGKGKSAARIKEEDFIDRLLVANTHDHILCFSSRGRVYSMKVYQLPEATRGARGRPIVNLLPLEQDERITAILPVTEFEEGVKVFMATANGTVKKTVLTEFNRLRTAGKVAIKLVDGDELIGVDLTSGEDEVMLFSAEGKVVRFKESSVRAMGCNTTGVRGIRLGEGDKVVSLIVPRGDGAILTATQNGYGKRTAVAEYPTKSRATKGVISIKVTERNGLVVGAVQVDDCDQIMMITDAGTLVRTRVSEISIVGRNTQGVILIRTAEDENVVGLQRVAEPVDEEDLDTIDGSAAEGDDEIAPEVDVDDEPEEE
smiles,measurement,setting,value
COc1ccc2ncc(C#N)c(CCN3CCC(NCc4cc5c(cn4)OCS5)CC3)c2c1,pIC50,DNA gyrase [1],7.85
same,MIC,Escherichia coli [2],0.06 µg/mL
same,pIC50,DNA gyrase [3],7.00
COc1ccc2ncc(F)c([C@@H](O)CC[C@@H]3CCN(CCSc4cccs4)C[C@@H]3C(=O)O)c2c1,pIC50,DNA gyrase subunit A [4],6.00
same,pIC50,DNA gyrase subunit A [5],4.96
same,pIC50,[6],5.66
same,pIC50,[7],4.74
COc1ccc2c3conc3c(=O)n(CCN3CCC(NCc4ccc5c(n4)NC(=O)CO5)CC3)c2c1,MIC,Escherichia coli [2],0.12 µg/mL
same,MIC,Staphylococcus aureus,0.12 µg/mL
same,pIC50,[8],6.85
same,pIC50,DNA gyrase [3],5.78
N[C@@H](Cn1c(=O)cnc2ccc(F)cc21)C1CCC(NCc2ncc3c(n2)OCC(=O)N3)CC1 (stereo not given in full),MIC90,Escherichia coli [9],2 µg/mL
same,pIC50,DNA gyrase [10],7.70
same,MIC,Staphylococcus aureus,1 µg/mL
same,pIC50,[11],8.52
